Where “and” joins values, the source holds several entries; their conditions need not be identical. Equal values may be shown once.
Test system: GEMS receptors with CBPvene (Bcl2–LD3 and Bcl2high variants), STAT3-driven SEAP in HEK293T cells
Assay: GEMS SEAP reporter assay, CBPvene (Bcl2high, LD3-v and Bcl2-v variants) with venetoclax
Type: cell-based
Settings: for SEAP / SEAP normalized (max=100): Supp Fig 10a
[1] = CBPVene-v5-Bcl2v2, Venetoclax 1000 nM
[2] = CBPVene-v5-Bcl2v2, Venetoclax 3160 nM
[3] = CBPVene-v5-Bcl2v2, Venetoclax 10000 nM
[4] = CBPVene-v5-LD3v1, Venetoclax 1 nM
[5] = CBPVene-v5-LD3v1, Venetoclax 3.16 nM
[6] = CBPVene-v5-LD3v1, Venetoclax 10 nM
[7] = CBPVene-v5-LD3v1, Venetoclax 31.6 nM
[8] = CBPVene-v5-LD3v1, Venetoclax 316 nM
[9] = CBPVene-v5-LD3v1, Venetoclax 1000 nM
[10] = CBPVene-v5-LD3v1, Venetoclax 10000 nM

CC1(C)CCC(CN2CCN(c3ccc(C(=O)NS(=O)(=O)c4ccc(NCC5CCOCC5)c([N+](=O)[O-])c4)c(Oc4cnc5[nH]ccc5c4)c3)CC2)=C(c2ccc(Cl)cc2)C1 [Venetoclax]
Normalized data Figure 5f [1]: 77.3797 and 77.4841 and 64.4738
Raw data Figure 5f [1]: 141.449 and 149.007 and 144.09
Normalized data Figure 5f [2]: 35.229 and 32.7238 and 23.2546
Raw data Figure 5f [2]: 64.398 and 62.9303 and 51.9708
Normalized data Figure 5f [3]: 15.1423 and 11.3283 and 13.9843
Raw data Figure 5f [3]: 27.6798 and 21.7852 and 31.253
Raw data of Independent repeat of CBPVene-v5 vs CBPVene-v5-LD3v1 (CBPVene-v5-LD3v1, Venetoclax 0.01 nM): 12.511 and 11.9088 and 12.8792
Normalized data Figure 5c [4]: 16.3682 and 15.9533 and 20.5713
Raw data Figure 5c [4]: 17.8707 and 19.0514 and 21.7836
Raw data of Independent repeat of CBPVene-v5 vs CBPVene-v5-LD3v1 [4]: 12.1852 and 11.7838 and 11.0502
Normalized data Figure 5c [5]: 15.1322 and 15.2538 and 18.8062
Raw data Figure 5c [5]: 16.5212 and 18.216 and 19.9144
Raw data of Independent repeat of CBPVene-v5 vs CBPVene-v5-LD3v1 [5]: 10.1265 and 10.196 and 11.563
Normalized data Figure 5c [6]: 22.3408 and 21.0089 and 24.5666
Raw data Figure 5c [6]: 24.3915 and 25.0888 and 26.0143
Raw data of Independent repeat of CBPVene-v5 vs CBPVene-v5-LD3v1 [6]: 13.7645 and 12.6779 and 10.7132
Normalized data Figure 5c [7]: 35.5947 and 28.4669 and 38.0182
Raw data Figure 5c [7]: 38.8619 and 33.9951 and 40.2586
Raw data of Independent repeat of CBPVene-v5 vs CBPVene-v5-LD3v1 [7]: 17.7633 and 18.8924 and 25.5
Raw data of Independent repeat of CBPVene-v5 vs CBPVene-v5-LD3v1 (CBPVene-v5-LD3v1, Venetoclax 100 nM): 38.3822 and 37.0306 and 47.6081
Normalized data Figure 5c [8]: 100
Raw data Figure 5c [8]: 109.179 and 119.42 and 105.893
Raw data of Independent repeat of CBPVene-v5 vs CBPVene-v5-LD3v1 [8]: 60.7806 and 63.7576 and 57.9589
Normalized data Figure 5c [9]: 77.7899 and 68.2523 and 65.7986
Raw data Figure 5c [9]: 84.9301 and 81.5067 and 69.6762
Raw data of Independent repeat of CBPVene-v5 vs CBPVene-v5-LD3v1 [9]: 40.6135 and 38.6218 and 45.893
Raw data of Independent repeat of CBPVene-v5 vs CBPVene-v5-LD3v1 (CBPVene-v5-LD3v1, Venetoclax 3160 nM): 20.9864 and 23.9183 and 23.9906
Normalized data Figure 5c [10]: 10.3166 and 8.27 and 9.621
Raw data Figure 5c [10]: 11.2636 and 9.876 and 10.1879
SEAP (U/L) (Figure 4h, Venetoclax 1 nM, representative data and independent repeats 1, 2 (triplicates)): 40.3558 U/L and 36.3798 U/L and 44.7796 U/L and 29.5956 U/L and 26.0853 U/L and 29.9849 U/L
SEAP (Bcl2-v1, venetoclax 316 nM): 16.9918
SEAP normalized (max=100) (Bcl2-v1, venetoclax 316 nM): 72.9686
SEAP (Bcl2-v1, venetoclax 1000 nM): 11.8168
SEAP normalized (max=100) (Bcl2-v1, venetoclax 1000 nM): 50.7451
SEAP (Bcl2-v1, venetoclax 3160 nM): 18.4889
SEAP normalized (max=100) (Bcl2-v1, venetoclax 3160 nM): 79.3975
SEAP (Bcl2-v1, venetoclax 10000 nM): 5.997
SEAP normalized (max=100) (Bcl2-v1, venetoclax 10000 nM): 25.7548
SEAP (Bcl2-v2, venetoclax 316 nM): 33.4045
SEAP normalized (max=100) (Bcl2-v2, venetoclax 316 nM): 100
SEAP (Bcl2-v2, venetoclax 1000 nM): 18.2725
SEAP normalized (max=100) (Bcl2-v2, venetoclax 1000 nM): 54.7009
SEAP (Bcl2-v2, venetoclax 3160 nM): 17.6043
SEAP normalized (max=100) (Bcl2-v2, venetoclax 3160 nM): 52.7004
SEAP (Bcl2-v2, venetoclax 10000 nM): 8.798
SEAP normalized (max=100) (Bcl2-v2, venetoclax 10000 nM): 26.337
SEAP (Bcl2-v3, venetoclax 316 nM): 24.8752
SEAP normalized (max=100) (Bcl2-v3, venetoclax 316 nM): 70.756
SEAP (Bcl2-v3, venetoclax 1000 nM): 15.674
SEAP normalized (max=100) (Bcl2-v3, venetoclax 1000 nM): 44.5837
SEAP (Bcl2-v3, venetoclax 3160 nM): 8.48
SEAP normalized (max=100) (Bcl2-v3, venetoclax 3160 nM): 24.1195
SEAP (Bcl2-v3, venetoclax 10000 nM): 5.027
SEAP normalized (max=100) (Bcl2-v3, venetoclax 10000 nM): 14.2997
SEAP (Bcl2-v4, venetoclax 316 nM): 20.3221
SEAP normalized (max=100) (Bcl2-v4, venetoclax 316 nM): 44.5121
SEAP (Bcl2-v4, venetoclax 1000 nM): 12.5122
SEAP normalized (max=100) (Bcl2-v4, venetoclax 1000 nM): 27.4059
SEAP (Bcl2-v4, venetoclax 3160 nM): 8.91
SEAP normalized (max=100) (Bcl2-v4, venetoclax 3160 nM): 19.5153
SEAP (Bcl2-v4, venetoclax 10000 nM): 6.178
SEAP normalized (max=100) (Bcl2-v4, venetoclax 10000 nM): 13.5319
SEAP (Bcl2-v5, venetoclax 316 nM): 16.3938
SEAP normalized (max=100) (Bcl2-v5, venetoclax 316 nM): 41.8642
SEAP (Bcl2-v5, venetoclax 1000 nM): 8.859
SEAP normalized (max=100) (Bcl2-v5, venetoclax 1000 nM): 22.6219
SEAP (Bcl2-v5, venetoclax 3160 nM): 8.087
SEAP normalized (max=100) (Bcl2-v5, venetoclax 3160 nM): 20.652
SEAP (Bcl2-v5, venetoclax 10000 nM): 5.778
SEAP normalized (max=100) (Bcl2-v5, venetoclax 10000 nM): 14.7539
SEAP (Bcl2-v6, venetoclax 316 nM): 25.9953
SEAP normalized (max=100) (Bcl2-v6, venetoclax 316 nM): 62.1077

From article PMC11062894, “Protein-based bandpass filters for controlling cellular signaling with chemical inputs” (Nature Chemical Biology, 2023)
